Laboratory results reported in patent US20120001065A1, “EVALUATING RENAL FUNCTION” (Mayo Foundation for Medical Education and Rsearch, priority 2009, published 2012).
Several values for one entry are separate records, joined by “and”; a condition that tells them apart may be missing. Equal entries are not always repeated. One block for each molecule: values may come before it.

Columns and labels:
[1] = GFR and ERPF-Long Renal Clearance (iothalamate and PAH continuous infusion): iothalamate concentration and GFR; assay type: in vivo; set-up: CE GFR / MS GFR: unit not given here; settings: one human subject; for CE GFR: corrected GFR per collection period from CE-UV; for CE GFR / MS GFR / Urine iothalamate concentration, CE / Urine iothalamate concentration, MS: continuous infusion; for MS GFR: corrected GFR per collection period from LC-MS/MS; for Plasma iothalamate concentration, CE / Plasma iothalamate concentration, MS: timed plasma collections P1-P6, continuous intravenous infusion; for Plasma iothalamate concentration, CE / Urine iothalamate concentration, CE: CE-UV; for Plasma iothalamate concentration, MS / Urine iothalamate concentration, MS: LC-MS/MS; for Urine iothalamate concentration, CE / Urine iothalamate concentration, MS: timed urine collections U1-U5
Procedure: For example, GFR can be calculated according to Formula I.
where UIoth is the concentration of iothalamate in urine, V is the urine flow rate (volume per unit of time), and PIoth is the plasma concentration during the urine collection period.
For the simultaneous determination of GFR and ERPF, iothalamate (Conray®, Mallinckrodt Inc. St. Louis, Mo.) and PAH (Aminohippurate Sodium, Merck & Co. Inc. Whitehouse Station, N.J.) were administered intravenously to one human subject. Iothalamate and PAH were administered using previously described constant infusion protocol. […] Blood samples were collected in tubes containing heparin or EDTA. Blood samples were centrifuged at 650 g for 7 minutes to separate plasma. Plasma was collected and stored at 4° C. to 8° C. Urine samples were collected and stored at 4° C. to 8° C. Frozen plasma and urine samples were thawed and stored at 4° C. to 8° C. until analysis.
The timed plasma collections (100 μL of each) were processed independently by diluting 1:3 with water followed by the addition of internal standard, D3-iothalamate and D4-PAH (20 μL of 38 μg/mL stock). The urine samples were diluted 1:10 with water and followed by the addition of internal standard, D3-iothalamate. All urine and plasma samples were then subjected to acetonitrile and/or 70% acetone polypeptide precipitation (100 μL) followed by centrifugation for 5 minutes at 650 g to remove/pellet protein. […]

[2] = GFR and ERPF-Long Renal Clearance (iothalamate and PAH continuous infusion): PAH concentration and ERPF; assay type: in vivo; set-up: CE ERPF / MS ERPF: unit not given here; settings: one human subject
Procedure: ERPF can be calculated according to Formula II.
Blood samples were collected in tubes containing heparin or EDTA. Blood samples were centrifuged at 650 g for 7 minutes to separate plasma. Plasma was collected and stored at 4° C. to 8° C. Urine samples were collected and stored at 4° C. to 8° C. Frozen plasma and urine samples were thawed and stored at 4° C. to 8° C. until analysis.
The urine samples were diluted 1:10 with water and followed by the addition of internal standard, D3-iothalamate. All urine and plasma samples were then subjected to acetonitrile and/or 70% acetone polypeptide precipitation (100 μL) followed by centrifugation for 5 minutes at 650 g to remove/pellet protein. […]

CE GFR ([1]; collection period P1): 138 | CE GFR ([1]; collection period P2): 127 | CE GFR ([1]; collection period P3): 123 | CE GFR ([1]; collection period P4): 114 | CE GFR ([1]; collection period P5): 119 | MS GFR ([1]; collection period P1): 141 | MS GFR ([1]; collection period P2): 114 | MS GFR ([1]; collection period P3): 120 | MS GFR ([1]; collection period P4): 116 | MS GFR ([1]; collection period P5): 119 | Plasma iothalamate concentration, CE ([1]; plasma collection P1): 11.645 µg/mL | Plasma iothalamate concentration, CE ([1]; plasma collection P2): 9.479 µg/mL | Plasma iothalamate concentration, CE ([1]; plasma collection P3): 8.341 µg/mL | Plasma iothalamate concentration, CE ([1]; plasma collection P4): 7.334 µg/mL | Plasma iothalamate concentration, CE ([1]; plasma collection P5): 6.869 µg/mL | Plasma iothalamate concentration, CE ([1]; plasma collection P6): 6.912 µg/mL | Plasma iothalamate concentration, MS ([1]; plasma collection P1): 10.6 µg/mL | Plasma iothalamate concentration, MS ([1]; plasma collection P2): 9.09 µg/mL | Plasma iothalamate concentration, MS ([1]; plasma collection P3): 7.93 µg/mL | Plasma iothalamate concentration, MS ([1]; plasma collection P4): 8.21 µg/mL | Plasma iothalamate concentration, MS ([1]; plasma collection P5): 7.12 µg/mL | Plasma iothalamate concentration, MS ([1]; plasma collection P6): 6.43 µg/mL | Urine iothalamate concentration, CE ([1]; urine collection U1): 12.973 µg/mL | Urine iothalamate concentration, CE ([1]; urine collection U2): 9.189 µg/mL | Urine iothalamate concentration, CE ([1]; urine collection U3): 8.069 µg/mL | Urine iothalamate concentration, CE ([1]; urine collection U4): 7.716 µg/mL | Urine iothalamate concentration, CE ([1]; urine collection U5): 7.333 µg/mL | Urine iothalamate concentration, MS ([1]; urine collection U1): 12.4 µg/mL | Urine iothalamate concentration, MS ([1]; urine collection U2): 7.85 µg/mL | Urine iothalamate concentration, MS ([1]; urine collection U3): 8.09 µg/mL | Urine iothalamate concentration, MS ([1]; urine collection U4): 8.5 µg/mL | Urine iothalamate concentration, MS ([1]; urine collection U5): 7.21 µg/mL
Compound: CNC(=O)c1c(I)c(NC(C)=O)c(I)c(C(=O)O)c1I [Iothalamate, iothalamate]

MS ERPF ([2]; ERPF per collection period from LC-MS/MS, continuous infusion): 586 and 514 and 532 and 602 and 566 | CE ERPF ([2]; ERPF per collection period, CE, continuous infusion): 574 and 534 and 523 and 615 and 543 | Urine PAH concentration, CE ([2]; timed urine collections U1-U5, CE, continuous infusion): 97.620 µg/mL
Compound: Nc1ccc(C(=O)NCC(=O)O)cc1 [PAH, p-aminohippuric acid]
Plasma PAH concentration, CE ([2]; timed plasma collections P1-P6, CE, continuous intravenous infusion): 17.755 µg/mL and 17.120 µg/mL and 17.740 µg/mL and 18.320 µg/mL and 18.000 µg/mL and 17.635 µg/mL | Plasma PAH concentration, MS ([2]; timed plasma collections P1-P6, LC-MS/MS, continuous intravenous infusion): 18.3 µg/mL and 18 µg/mL and 18.7 µg/mL and 18.9 µg/mL and 19.4 µg/mL and 17.9 µg/mL
